Measurements taken from patent US20250270180A1, “MEK INHIBITORS AND THERAPEUTIC USES THEREOF” (Immuneering Corporation, priority 2020, published 2025).
Read-outs that look alike come from different tables or passages of the source.

Assays:
[1] = Microsome stability, human; type: in vitro ADME; conditions: microsomes, 2 μM
[2] = Microsome stability, beagle dog; type: in vitro ADME; conditions: microsomes, 2 μM
Plasma stability, human = type: in vitro ADME; conditions: 2 μM
[3] = Plasma stability, beagle dog; type: in vitro ADME; conditions: 2 μM
[4] = Plasma stability, CD-1 mouse; type: in vitro ADME; conditions: 2 μM
CYP450 1A2 = target: T1, CYP450 1A2 (Homo sapiens, UniProt P05177); assay: CYP450 panel, 1A2; type: in vitro ADME; conditions: 10 μM; substrate phenacetin
T1 sequence (P05177 1-516): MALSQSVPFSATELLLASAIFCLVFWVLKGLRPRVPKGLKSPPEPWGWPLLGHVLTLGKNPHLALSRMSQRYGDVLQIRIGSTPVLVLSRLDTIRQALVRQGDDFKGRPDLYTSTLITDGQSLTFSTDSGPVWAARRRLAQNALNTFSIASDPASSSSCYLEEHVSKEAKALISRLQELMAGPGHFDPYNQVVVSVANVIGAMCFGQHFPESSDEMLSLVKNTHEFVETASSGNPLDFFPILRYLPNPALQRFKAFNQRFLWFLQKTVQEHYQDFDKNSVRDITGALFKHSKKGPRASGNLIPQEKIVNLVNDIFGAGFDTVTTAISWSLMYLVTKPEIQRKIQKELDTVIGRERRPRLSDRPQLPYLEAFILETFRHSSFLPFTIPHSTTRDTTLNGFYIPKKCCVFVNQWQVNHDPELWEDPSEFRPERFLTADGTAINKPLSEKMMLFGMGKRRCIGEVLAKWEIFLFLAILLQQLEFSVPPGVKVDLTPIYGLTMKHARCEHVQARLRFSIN

[5] = Pharmacokinetics, single dose, 2-hour tissue levels in Colon26 tumor bearing mice; type: in vivo; conditions: single dose 100 mg/kg p.o., 2-hour post dose; for concentration at 2 h: female, athymic BALB/c nude or BALB/c, mouse, po
Experimental: Female mice (either athymic BALC/c nude, or BALB/c mice) were inoculated with a single subcutaneous injection of 0.2 ml of mouse Colon-26 cell suspension (1×10^5 cells per animal) in the inguinal region. Colon26 (C26) tumor bearing mice received a single dose (3 mice/treatment) of vehicle (10% DMSO/90% [20% SBE-β-CD in saline], pH 5) containing compounds at 100 mg/kg by gavage (p.o.) and 2-hour post dose humanely euthanized.
Blood was obtained through cardiac puncture into K+EDTA tubes, mixed by inversion and centrifuged to obtain the plasma. Tissues were excised, cleaned of surrounding tissues. All samples immediately snap frozen in liquid N2 prior to LC-MS/MS analysis (using Waters HSS T3 2.1×50 mm (1.8 um) LC column, and an API-6500 Electrospray MS unit).

hERG Channel = hERG Channel (Homo sapiens, UniProt Q12809); assay: cell-based
Sequence of hERG Channel (Q12809 whole entry): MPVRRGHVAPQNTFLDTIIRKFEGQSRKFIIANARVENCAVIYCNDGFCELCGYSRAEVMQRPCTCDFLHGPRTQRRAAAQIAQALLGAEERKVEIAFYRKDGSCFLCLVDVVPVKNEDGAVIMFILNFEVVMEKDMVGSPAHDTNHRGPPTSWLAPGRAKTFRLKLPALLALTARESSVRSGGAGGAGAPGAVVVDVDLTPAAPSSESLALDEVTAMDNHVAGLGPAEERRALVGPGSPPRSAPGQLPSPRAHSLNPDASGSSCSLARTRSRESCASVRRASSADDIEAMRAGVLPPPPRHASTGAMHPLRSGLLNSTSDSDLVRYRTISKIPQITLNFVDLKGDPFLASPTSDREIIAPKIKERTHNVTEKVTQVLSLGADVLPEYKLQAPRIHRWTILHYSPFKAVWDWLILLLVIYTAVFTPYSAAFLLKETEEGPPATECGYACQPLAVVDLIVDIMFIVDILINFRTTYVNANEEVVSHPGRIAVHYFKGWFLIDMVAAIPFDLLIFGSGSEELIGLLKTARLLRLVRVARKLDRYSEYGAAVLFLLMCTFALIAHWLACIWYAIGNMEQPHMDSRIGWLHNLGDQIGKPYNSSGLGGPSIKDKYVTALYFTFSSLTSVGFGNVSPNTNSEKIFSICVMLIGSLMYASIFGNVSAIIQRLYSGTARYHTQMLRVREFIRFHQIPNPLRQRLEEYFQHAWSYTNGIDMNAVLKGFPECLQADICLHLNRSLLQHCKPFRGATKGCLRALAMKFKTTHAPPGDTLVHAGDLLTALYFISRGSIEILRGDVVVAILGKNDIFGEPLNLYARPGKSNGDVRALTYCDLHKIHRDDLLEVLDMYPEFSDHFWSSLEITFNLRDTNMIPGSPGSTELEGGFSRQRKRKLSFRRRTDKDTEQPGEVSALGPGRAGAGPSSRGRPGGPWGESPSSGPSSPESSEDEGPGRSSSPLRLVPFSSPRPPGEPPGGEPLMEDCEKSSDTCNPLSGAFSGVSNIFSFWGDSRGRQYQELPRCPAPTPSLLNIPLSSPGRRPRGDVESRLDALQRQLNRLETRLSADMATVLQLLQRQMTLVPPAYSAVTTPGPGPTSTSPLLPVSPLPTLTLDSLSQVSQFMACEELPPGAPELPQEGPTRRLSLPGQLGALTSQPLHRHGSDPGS

CYP450 2B6 = target: T2, CYP450 2B6 (Homo sapiens, UniProt P20813); assay: CYP450 panel, 2B6; conditions: 10 μM; substrate bupropion
T2 sequence (P20813 1-491): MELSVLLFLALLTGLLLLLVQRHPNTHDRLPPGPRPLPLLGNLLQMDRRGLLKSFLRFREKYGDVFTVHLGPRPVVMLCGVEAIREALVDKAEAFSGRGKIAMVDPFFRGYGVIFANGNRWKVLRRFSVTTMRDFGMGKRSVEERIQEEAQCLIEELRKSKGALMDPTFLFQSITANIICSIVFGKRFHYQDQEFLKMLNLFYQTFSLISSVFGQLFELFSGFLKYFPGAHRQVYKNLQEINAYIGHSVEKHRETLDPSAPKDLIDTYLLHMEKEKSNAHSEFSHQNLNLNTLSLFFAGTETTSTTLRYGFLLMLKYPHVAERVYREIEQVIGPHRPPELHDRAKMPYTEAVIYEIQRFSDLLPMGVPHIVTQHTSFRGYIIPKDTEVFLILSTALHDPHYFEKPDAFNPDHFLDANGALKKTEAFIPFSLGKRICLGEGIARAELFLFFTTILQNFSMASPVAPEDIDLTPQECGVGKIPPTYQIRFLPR

CYP450 2C8 = target: T3, CYP450 2C8 (Homo sapiens, UniProt P10632); assay: CYP450 panel, 2C8; conditions: 10 μM; substrate amodiaquine
T3 sequence (P10632 1-490): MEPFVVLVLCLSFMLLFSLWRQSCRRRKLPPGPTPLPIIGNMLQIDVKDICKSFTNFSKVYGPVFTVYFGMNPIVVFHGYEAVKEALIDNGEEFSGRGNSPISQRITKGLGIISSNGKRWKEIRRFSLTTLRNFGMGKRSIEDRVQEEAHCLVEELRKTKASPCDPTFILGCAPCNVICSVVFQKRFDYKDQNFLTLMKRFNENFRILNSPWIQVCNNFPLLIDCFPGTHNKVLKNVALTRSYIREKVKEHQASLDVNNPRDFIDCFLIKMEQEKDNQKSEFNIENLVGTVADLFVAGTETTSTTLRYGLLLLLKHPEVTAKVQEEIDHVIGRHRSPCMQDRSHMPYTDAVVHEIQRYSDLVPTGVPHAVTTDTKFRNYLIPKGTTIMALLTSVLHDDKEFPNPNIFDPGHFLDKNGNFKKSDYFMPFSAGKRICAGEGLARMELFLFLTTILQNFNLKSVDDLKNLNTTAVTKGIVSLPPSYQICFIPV

CYP450 2C9 = CYP450 2C9 (Homo sapiens, UniProt P11712); assay: CYP450 panel, 2C9; conditions: 10 μM; substrate Diclofenac
Sequence of CYP450 2C9 (P11712 whole entry): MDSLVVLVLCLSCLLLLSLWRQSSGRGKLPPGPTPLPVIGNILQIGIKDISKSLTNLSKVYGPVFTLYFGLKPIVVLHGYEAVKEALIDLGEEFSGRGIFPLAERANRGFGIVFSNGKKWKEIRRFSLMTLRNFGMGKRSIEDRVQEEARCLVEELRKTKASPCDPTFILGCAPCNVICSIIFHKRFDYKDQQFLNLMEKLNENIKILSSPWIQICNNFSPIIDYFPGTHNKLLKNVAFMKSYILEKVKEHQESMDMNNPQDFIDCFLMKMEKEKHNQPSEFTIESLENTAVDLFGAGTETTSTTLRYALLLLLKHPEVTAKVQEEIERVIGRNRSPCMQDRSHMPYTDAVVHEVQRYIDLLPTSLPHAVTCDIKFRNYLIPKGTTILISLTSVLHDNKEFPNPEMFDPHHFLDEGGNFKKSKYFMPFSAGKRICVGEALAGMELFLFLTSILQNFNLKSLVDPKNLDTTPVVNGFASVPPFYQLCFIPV

CYP450 2D6 = CYP450 2D6 (Homo sapiens, UniProt P10635); assay: CYP450 panel, 2D6; conditions: 10 μM; substrate dextromethophan
Sequence of CYP450 2D6 (P10635 whole entry): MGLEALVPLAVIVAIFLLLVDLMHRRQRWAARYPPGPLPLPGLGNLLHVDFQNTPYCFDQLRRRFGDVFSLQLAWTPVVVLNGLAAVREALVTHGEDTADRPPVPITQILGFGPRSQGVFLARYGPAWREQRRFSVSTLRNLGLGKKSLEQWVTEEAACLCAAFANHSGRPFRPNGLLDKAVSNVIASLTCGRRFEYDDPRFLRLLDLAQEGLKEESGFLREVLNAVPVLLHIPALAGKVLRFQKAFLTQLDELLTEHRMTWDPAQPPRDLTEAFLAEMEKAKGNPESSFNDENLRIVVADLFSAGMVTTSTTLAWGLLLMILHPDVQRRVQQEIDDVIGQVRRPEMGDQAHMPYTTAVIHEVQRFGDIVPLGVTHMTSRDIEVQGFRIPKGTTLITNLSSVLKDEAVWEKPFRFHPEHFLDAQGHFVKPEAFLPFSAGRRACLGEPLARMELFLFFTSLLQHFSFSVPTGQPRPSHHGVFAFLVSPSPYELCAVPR

CYP450 3A4 = CYP450 3A4 (Homo sapiens, UniProt P08684); assay: CYP450 panel, 3A4; conditions: 10 μM; for 3A4*: substrate midazolam; for 3A4^: substrate testosterone
Sequence of CYP450 3A4 (P08684 whole entry): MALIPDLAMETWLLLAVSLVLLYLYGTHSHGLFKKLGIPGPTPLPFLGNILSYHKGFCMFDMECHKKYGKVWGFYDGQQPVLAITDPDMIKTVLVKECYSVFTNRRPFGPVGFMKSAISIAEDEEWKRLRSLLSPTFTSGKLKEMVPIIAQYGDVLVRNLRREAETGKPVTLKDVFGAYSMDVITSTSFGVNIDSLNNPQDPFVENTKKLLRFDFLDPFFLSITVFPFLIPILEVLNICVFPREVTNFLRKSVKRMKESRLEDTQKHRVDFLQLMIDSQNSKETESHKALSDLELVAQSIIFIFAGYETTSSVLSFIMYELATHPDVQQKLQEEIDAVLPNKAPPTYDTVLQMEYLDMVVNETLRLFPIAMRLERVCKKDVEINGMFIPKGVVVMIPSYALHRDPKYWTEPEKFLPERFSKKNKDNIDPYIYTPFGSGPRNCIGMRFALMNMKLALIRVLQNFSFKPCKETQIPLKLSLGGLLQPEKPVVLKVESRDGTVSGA

CYP450 2C19 = CYP450 2C19 (Homo sapiens, UniProt P33261); assay: CYP450 panel, 2C19; conditions: 10 μM; substrate mephenytoin
Sequence of CYP450 2C19 (P33261 whole entry): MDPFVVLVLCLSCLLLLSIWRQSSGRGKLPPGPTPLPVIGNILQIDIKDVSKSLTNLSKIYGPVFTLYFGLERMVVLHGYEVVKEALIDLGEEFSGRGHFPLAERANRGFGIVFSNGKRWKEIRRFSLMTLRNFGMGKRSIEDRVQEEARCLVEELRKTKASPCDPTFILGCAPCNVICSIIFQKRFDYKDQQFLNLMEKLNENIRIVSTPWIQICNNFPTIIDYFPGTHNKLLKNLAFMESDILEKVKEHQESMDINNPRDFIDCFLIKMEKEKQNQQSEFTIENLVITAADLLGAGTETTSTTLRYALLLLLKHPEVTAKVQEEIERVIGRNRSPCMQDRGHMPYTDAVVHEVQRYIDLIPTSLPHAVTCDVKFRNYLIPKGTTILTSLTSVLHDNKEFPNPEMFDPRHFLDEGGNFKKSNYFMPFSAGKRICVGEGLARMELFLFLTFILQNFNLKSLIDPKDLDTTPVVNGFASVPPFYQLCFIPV

[6] = Microsome stability, CD-1 mouse; conditions: microsomes, 2 μM
[7] = Absorption & efflux: Caco-2 permeability; conditions: human
A549 pERK = assay: A549-pERK, 2 h (quantitative Western, Jess); type: cell-based; conditions: Homo sapiens, A549, 2 h, phospho:total ratio normalized to DMSO control; for activity at 0.01 µM: 10 nM
Procedure, shortened: (§1)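 Cells treated in duplicate for 2 h with compound, lysed and protein-normalised (1 mg/mL pERK, 1.5 mg/mL pMEK). Quantitative capillary Western; phospho/total protein ratio normalised to DMSO.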

[8] = system: A549 CRAF BP (MEK phosphorylation); assay: A549-CRAF BP 100 nM, 2 h (pMEK); type: cell-based; conditions: Homo sapiens, A549, 2 h, phospho:total ratio normalized to DMSO control
Procedure, shortened: as §1

[9] = system: A549 (KRAS G12S) pERK: total ERK; assay: Phospho-ERK screen in A549 (KRAS G12S); type: cell-based; conditions: 10 μM for 2 hours; for activity at 10 µM: Homo sapiens, A549, 2 h, read-out: pERK: total ERK (% relative to vehicle)
Experimental: Materials and Methods: A549 or A375 cells were seeded in 6-well plates at an appropriate seeding density on day 0. On day 2 or 3, after checking the health and confluency of cells, the media was aspirated and replaced with 1 mL media containing a predetermined concentration of compound and incubated for 2 hours. After 2 hours, the media was aspirated, and the cells washed 2 times with cold PBS. Cells were lysed on ice, with 50 uL 1×CST lysis buffer+1 mM PMSF for 5 minutes. After 5 minutes, cells were removed using a scraper and transferred to cold 1.5 mL tubes, and centrifuged for 10 min, 4° C., 14,000×g. Supernatant was gently removed and snap frozen in liquid nitrogen. Protein concentration of the lysate was determined using Bradford Reagent (analyzed using SpectraMax M2E) and diluted to 1 mg/mL or pERK or 1.5 mg/mL for pMEK analysis. Cell lysates were then analyzed for phosphor-ERK/total-ERK levels on a Jess system (ProteinSimple; Cat #JS3346) using the following antibodies: tERK1/2 (CST 4696; 1:50) and pERK1/2 (CST 4377; 1:50). For pMEK/tMEK, the following antibodies were used: tMEK1/2 (CST 4694; 1:15) and pMEK1/2 (CST 9154; 1:400). All dilutions were in Milk-free antibody diluent.
The results of a phospho-ERK Screen in A549 (KRAS G12S) study is described in Table 7, 7A, 7B, and 8 below.

[10] = Caco-2, A-B Permeability Ranking
[11] = Caco-2, Mean Papp A-B (10^−6 cm/s)

SMILES	Human (% Reamining @1 hour) [1] [%]	Beagle Dog (% Reamining @1 hour) [2] [%]	Human (% Reamining @2 hour) (Plasma stability, human) [%]	Beagle Dog (% Reamining @2 hour) [3] [%]	CD-1 Mouse (% Reamining @2 hour) [4] [%]	1A2* (CYP450 1A2)	concentration at 2 h ([5]; liver, read-out: Liver) [ng/g]	concentration at 2 h ([5]; tumor, read-out: Tumor) [ng/g]	IC50 (hERG Channel) [µM]	2B6* (CYP450 2B6)	2C8* (CYP450 2C8)	2C9* (CYP450 2C9)	2D6* (CYP450 2D6)	3A4* (CYP450 3A4)	3A4^ (CYP450 3A4)	2C19* (CYP450 2C19)	CD-1 Mouse (% Reamining @1 hour) [6] [%]	Papp B→A at 2 h, 10 μM [7] [×10⁻⁶ cm/s]	efflux ratio at 2 h, 10 μM [7]	activity at 0.01 µM (A549 pERK) [%]	also measured
CNS(=O)(=O)Nc1cccc(Cc2c(CNCC#N)c3ccc(OC(=O)N(C)C)cc3oc2=O)c1F [Compound 13]	57.7	69.6	87.3	95.9	87.1	6.5	36.6	26	> 30	15.8	6.2	−4.6	−2.6	25.7	34.9	6.2	16.8	20	5.57	–	Muscle [5]: BQL; Plasma [5]: BQL; Papp A→B at 2 h, 10 μM [7, 10]: > 1 ×10⁻⁶ cm/s; Papp A→B at 2 h, 10 μM [7, 11]: 3.59 ×10⁻⁶ cm/s
C#CCNCc1c(Cc2cccc(NS(=O)(=O)NC)c2F)c(=O)oc2cc(OC(=O)N(C)C)ccc12 [Compound 14]	38.1	51.6	96.0	91.2	95.0	6.3	17.8	2.68	19.4	15.6	8.4	8.2	6.6	26.7	39.3	4.0	13.2	26.1	2.8	64	concentration at 2 h ([5]; muscle, read-out: Muscle): 19 ng/g; concentration at 2 h ([5]; plasma, read-out: Plasma): 18.5 ng/mL; activity at 0.1 µM [8]: 59.1%; Papp A→B at 2 h, 10 μM [7, 10]: > 1 ×10⁻⁶ cm/s; Papp A→B at 2 h, 10 μM [7, 11]: 9.34 ×10⁻⁶ cm/s
CNS(=O)(=O)Nc1cccc(Cc2c(CNC(=O)OCCO)c3ccc(OC(=O)N(C)C)cc3oc2=O)c1F [Compound 106]	–	–	–	–	–	–	–	–	–	–	–	–	–	–	–	–	–	–	–	–	pERK: total ERK (% relative to vehicle) [9]: 27.88%; activity at 10 µM (A549 pERK): 27.9%
CNS(=O)(=O)Nc1cccc(Cc2c(CN3CCNCC3)c3cc(F)c(OC(=O)N(C)C)cc3oc2=O)c1F [Compound 134]	–	–	–	–	–	–	–	–	–	–	–	–	–	–	–	–	–	–	–	33.1	activity at 10 µM [9]: 23.4%; activity at 0.1 µM [8]: 26.9%
CNS(=O)(=O)Nc1cccc(Cc2c(CNC(=O)OCCO)c3ccc(OC(=O)N(C)C)cc3oc2=O)c1F [Compound 185]	–	–	–	–	–	–	–	–	–	–	–	–	–	–	–	–	–	–	–	–	pERK: total ERK (% relative to vehicle) [9]: 7.39%
CNS(=O)(=O)Nc1cccc(Cc2c(CNCC(=O)N3CCNCC3)c3ccc(OC(=O)N(C)C)cc3oc2=O)c1F [Compound 191]	–	–	–	–	–	–	–	–	–	–	–	–	–	–	–	–	–	–	–	131	activity at 10 µM [9]: 7.34%; activity at 10 µM (A549 pERK): 8.6%
